In US6989364B1, “Methods for treating cardiac hypertrophy by administering IFN-γ” (Genentech, Inc., priority 1998, dated 2006):

System: adult rat cardiac myocytes
Test: Inhibition of PGF2α-induced spreading response of adult myocytes
Assay type: cell-based
Experimental: Myocytes were pre-incubated with saline vehicle or IFN-γ (500 U/ml) on day of isolation. A second addition of vehicle or IFN-γ was performed 24h after isolation, along with the addition of either vehicle or PGF2α (10^−7 M). After an additional 72 hr incubation, cells were fixed in glutaraldehyde, stained with eosin Y and viewed by fluorescence microscopy. A, B, C Cardiac myocytes after 4 days in culture: control, PGF2α, and PGF2α+IFN-γ, respectively. D, E, F Histographs showing maximum breadth of rod shaped cardiac myocytes versus percent frequency of breadth occurrence. The maximum breadth of rod-shaped cells was determined by fluorescence microscopy and imaging software. At least 200 rod shaped cells from a single experiment were examined per group.
Myocytes were pre-incubated with saline vehicle or IFN-γ on day of isolation. A second amount of IFN-γ was added 24 hr after isolation, along with the addition of either vehicle or PGF2α (10^−7 M). After an additional 72 hr incubation, cells were fixed in glutaraldehyde, stained with eosin Y and viewed under fluorescence. Quantitation of myocyte morphology: A control, B PGF2α, C PGF2α+IFN-γ (25 U/ml), D PGF2α+IFN-γ (100 U/ml), E PGF2α+IFN-γ (500 U/ml). Histographs showing maximum breadth of rod shaped cardiac myocytes versus percent frequency of breadth occurrence. The maximum breadth of rod-shaped cells was determined by fluorescence microscopy and imaging software. At least 200 rod shaped cells from a single experiment were examined per group.
In this assay, ventricular myocytes are isolated from a single (male Sprague-Dawley) rat, essentially following a modification of the procedure described in detail by Piper et al., “Adult ventricular rat heart muscle cells.” In: Cell Culture Techniques in Heart and Vessel Research, H. M. Piper, ed., Berlin: Spinger-Verlag, 1990, pp. 36–60. This procedure permits the isolation of adult ventricular myocytes and the long-term culture of these cells in the rod-shaped phenotype. […] Piper et al., supra; Lai et al., Am J. Physiol. 1996; 271 (Heart Circ. Phvsiol. 40):H2197–H2208. The inhibition of myocyte spreading induced by PGF2α, or PGF2α analogs, (e.g. fluprostenol) and phenylephrine by various potential inhibitors of cardiac hypertrophy is then tested. A detailed protocol is described in the examples that follow.
Adult myocyte cultures The procedure used for the isolation of ventricular myocytes from adult rats was a modification of a procedure described by Piper et al., supra, and is detailed in Lai et al., supra. For each myocyte preparation, one male Sprague-Dawley rat weighing about 250 g was anesthetized with pentobarbital sodium, and the heart was removed. Extraneous tissue was trimmed from the heart, and it was mounted onto a Langendorff system that was temperature controlled at 37° C. The heart was perfused with about 40 ml of Krebs buffer (110 mM NaCl, 2.6 mM KCl, 1.2 mM KH2PO4, 1.2 mM MgSO4.7H2O, 25 mM NaHCO3 and 11 mM glucose). A solution containing 30 mg of collagenase and 12.5 μl of 100 mM CaCl2 in 50 ml of Krebs buffer was then recirculated through the heart for 30 minutes. The heart was removed from the Langendorff apparatus, and the atria and connective tissues were removed. The ventricles were cut into 2 mm cubes with dissecting scissors, and further digested in a fresh collagenase solution (30 mg collagenase and 400 mg BSA dissolved in Krebs buffer with 12.5 μl of 100 mM CaCl2) for five minutes at 37° C. During the digestion, the tissue suspension was gently band shaken one time per minute. After the digestion, the supernatant was removed and saved, and the remaining tissue was further digested in fresh collagenase solution for an additional five minutes.

IFN-γ: recombinant mouse IFN-γ (Genentech, Inc., South San Francisco, Calif., or Genzyme, Cambridge, Mass.)
Dose dependence of the inhibitory effect on PGF2α-induced myocyte spreading (IFN-γ 25, 100, 500 U/ml, PGF2α 10^−7 M): dose dependent
Inhibition of PGF2α-induced myocyte spreading (maximum cell breadth of rod shaped cells) (IFN-γ 500 U/ml, PGF2α 10^−7 M, 72 hr, P<0.001 vs PGF2α): significantly inhibited their response to PGF2α
Effect of the substance alone on morphology of the cells (IFN-γ alone, 500 U/ml, no PGF2α): had no observable effect on the morphology of the cells
